# In patent US4000147A, “Anhydro-2-mercapto-1,3,4-thiadiazolium hydroxides” (BASF Aktiengesellschaft, priority 1974, dated 1976):
# Like-named read-outs stand apart in the source and are kept apart here.
# Assays:
# [1] = tested on: clonic cramps caused by Pentetrazol; test: anti-convulsive action against clonic spasms caused by Pentetrazol (60 mg/kg s.c.), inclined screen (Table 2); type: in vivo, female Swiss mice; settings: Mus musculus, mice, oral, 30 minutes before s.c. 60 mg/kg Pentetrazol
# Description: As a pharmacological test of the anti-convulsive action against clonic spasms caused by Pentetrazol, the test substances were administered orally to groups of from 8 to 10 female Swiss mice weighing from 20 to 25 g, 30 minutes before subcutaneous administration of 60 mg/kg of Pentetrazol.
# In the untreated animals, this dose of Pentetrazol caused clonic cramps, as a result of which the mice slid off an inclined screen.
# Anti-convulsive agents prevent the cramps and the sliding off the screen, the degree of prevention depending on the dose. The ED50 was taken to be the dose after administration of which 50% of the treated animals remained on the screen.
# ^1) Action against clonic cramps caused by Pentetrazol in mice. Oral
# administration 30 minutes before subcutaneous administration of 60 mg/kg
# [2] = acute toxicity, intraperitoneal (Table 2); settings: mouse, in vivo, ip, mice, approximate values
# Description: ^2) Mice. Intraperitoneal administration. Approximate values
# [3] = tested on: maximum Pentetrazol-induced extension; test: maximum tonic extension spasm after subcutaneous administration of 121 mg/kg of Pentetrazol (Table 3); type: in vivo, mice; settings: for ED50: Mus musculus, read-out: Maximum Pentetrazol-induced extension, ED50
# [4] = tested on: minimum Pentetrazol-induced cramp; test: minimum clonic cramp after subcutaneous administration of 70 mg/kg of Pentetrazol (Table 3); type: in vivo, mice; settings: for ED50: Mus musculus, 0.75 h, read-out: Minimum Pentetrazol-induced cramp, ED50
# [5] = tested on: maximum electric shock; test: maximum tonic electro-induced cramp (Table 3); type: in vivo, mice; settings: for ED50: Mus musculus, read-out: Maximum electric shock, ED50
# [6] = in vivo; settings: for LD50: mouse, in vivo
# Description: The comparative experiments in Table 3 were carried out with anhydro-2-mercapto-4-methyl-5-(3'-chlorophenyl)-1,3,4-thiadiazolium hydroxide, referred to as substance A in the Table and in the subsequent text.
# [7] = mice, oral, 121 mg/kg Pentetrazol s.c.
# [8] = mice, oral, 70 mg/kg Pentetrazol s.c., observed 45 minutes after Pentetrazol
# [9] = mice, oral, tonic cramps induced by electric shock
smiles,measurement,setting,value
C[n+]1nc([S-])sc1-c1cccc(Cl)c1 [drawing 15],ED50,[1],3.2 mg/kg
same,LD50,[2],> 1000 mg/kg
C[n+]1nc([S-])sc1-c1cccc(F)c1,ED50,[1],2.2 mg/kg
same,LD50,[2],1000 mg/kg
"C[n+]1nc([S-])sc1-c1cccc(Cl)c1 [Substance A, anhydro-2-mercapto-4-methyl-5-(3'-chlorophenyl)-1,3,4-thiadiazolium hydroxide]",ED50,[3]; [7],10 mg/kg
same,ED50,[4]; [8],7 mg/kg
same,"activity in counteracting clonic spasms induced by Pentetrazol, compared with Phenobarbital and Phenytoin",[4]; in words,more active in counteracting clonic spasms induced by Pentetrazol than is Phenobarbital and above all than is Phenytoin
same,ED50,[5]; [9],23 mg/kg
same,toxicity compared with Phenobarbital and Phenytoin,[6]; in words,markedly less than that of Phenobarbital and Phenytoin
same,LD50,[6],> 1000 mg/kg
CCC1(c2ccccc2)C(=O)NC(=O)NC1=O [Phenobarbital],ED50,[3]; po,22 mg/kg
same,"activity in tonic cramp induced by Pentetrazol, relative to substance A",[3]; in words,about twice as active
same,ED50,[4]; po,30 mg/kg
same,ED50,[5]; po,11 mg/kg
same,"activity in cramp induced by electric shock, relative to substance A",[5]; in words,about twice as active
same,LD50,[6],320 mg/kg
CCC[n+]1nc([S-])sc1-c1ccccc1,ED50,[1],22 mg/kg
same,LD50,[2],68.1 mg/kg
C[n+]1nc([S-])sc1-c1ccccc1F,ED50,[1],10 mg/kg
same,LD50,[2],> 1000 mg/kg
C[n+]1nc([S-])sc1-c1ccc(Br)cc1,ED50,[1],46 mg/kg
same,LD50,[2],> 1000 mg/kg
C[n+]1nc([S-])sc1-c1cccc(C(F)(F)F)c1,ED50,[1],0.46 mg/kg
same,LD50,[2],681 mg/kg
CN1C(=O)OC(C)(C)C1=O [Trimethadion],ED50,[3]; [7],260 mg/kg
same,"times less active than substance A, tonic cramp test",[3]; tonic cramp test,more than 20 times
same,ED50,[4]; [8],240 mg/kg
same,"times less active than substance A, clonic cramp test",[4]; clonic cramp test,more than 20 times
same,ED50,[5]; [9],450 mg/kg
same,LD50,[6],> 1000 mg/kg
C[n+]1nc([S-])sc1-c1ccc(F)cc1,ED50,[1],2.2 mg/kg
same,LD50,[2],> 1000 mg/kg
CCC[n+]1nc([S-])sc1-c1ccc(Cl)cc1,ED50,[1],32 mg/kg
same,LD50,[2],681 mg/kg
O=C1NC(=O)C(c2ccccc2)(c2ccccc2)N1 [Phenytoin],ED50,[3]; [7],22 mg/kg
same,activity against clonic spasms induced by Pentetrazol,[4]; in words,inactive
same,"Minimum Pentetrazol-induced cramp, ED50",[4]; [8],inactive
same,ED50,[5]; [9],8 mg/kg
